Source: ChEMBL document CHEMBL3045335, “Synthesis, antimicrobial, and antioxidant activities of some new indole analogues containing pyrimidine and fused pyrimidine systems” (Med Chem Res, 2012)
≈ marks a conversion by molar mass, not a printed value.

What was measured:
Assay type in all cases: functional
[1] = test system: Pseudomonas aeruginosa; experiment: Antibacterial activity against Pseudomonas aeruginosa at 1 mg/ml after 24 hr by agar well diffusion method; settings: for zone of inhibition at 1000 µg/mL: read-out: IZ
[2] = test system: Staphylococcus aureus; experiment: Antibacterial activity against Staphylococcus aureus at 1 mg/ml after 24 hr by agar well diffusion method; settings: for zone of inhibition at 1000 µg/mL: read-out: IZ
[3] = test system: Aspergillus oryzae; experiment: Antifungal activity against Aspergillus oryzae at 1 mg/ml after 72 hr by agar well diffusion method; settings: read-out: IZ
[4] = test system: Klebsiella pneumoniae; experiment: Antibacterial activity against Klebsiella pneumoniae at 1 mg/ml after 24 hr by agar well diffusion method; settings: for zone of inhibition at 1000 µg/mL: read-out: IZ
[5] = test system: Aspergillus niger; experiment: Antifungal activity against Aspergillus niger at 1 mg/ml after 72 hr by agar well diffusion method; settings: read-out: IZ
[6] = test system: Aspergillus terreus; experiment: Antifungal activity against Aspergillus terreus at 1 mg/ml after 72 hr by agar well diffusion method; settings: read-out: IZ
[7] = test system: Radical scavenging activity; experiment: Antioxidant activity assessed as DPPH radical scavenging activity by spectrophotometric analysis
[8] = test system: Radical scavenging activity; experiment: Antioxidant activity assessed as DPPH radical scavenging activity at 100 ug/ml by spectrophotometric analysis

`N#Cc1c(NN)nc(NN)nc1-c1c(-c2ccccc2)[nH]c2ccccc12` was tested, and the zone of inhibition at 1000 µg/mL [1] was 10 mm, the zone of inhibition at 1000 µg/mL [2] was 8 mm and the zone of inhibition at 1000 µg/mL [3] was 10 mm. The zone of inhibition at 1000 µg/mL [4] was 11 mm, the zone of inhibition at 1000 µg/mL [5] was 10 mm and the zone of inhibition at 1000 µg/mL [6] was 11 mm.
In the case of `CC(C)(C)c1cc(O)ccc1O` [E319], the IC50 [7] is reported as 14.46 µg/mL (≈ 87 µM).
`N#Cc1c(-c2c(-c3ccccc3)[nH]c3ccc(Cl)cc23)n2nnnc2n2nnnc12` showed a zone of inhibition at 1000 µg/mL [1] of 12 mm, a zone of inhibition at 1000 µg/mL [2] of 14 mm and a zone of inhibition at 1000 µg/mL [3] of 10 mm. The zone of inhibition at 1000 µg/mL [4] was 13 mm, the zone of inhibition at 1000 µg/mL [5] was 13 mm and the zone of inhibition at 1000 µg/mL [6] was 11 mm.
`N#Cc1c(-c2c(-c3ccccc3)[nH]c3ccccc23)[nH]c(=S)[nH]c1=O` was tested, and the zone of inhibition at 1000 µg/mL [1] was 11 mm, the zone of inhibition at 1000 µg/mL [2] was 11 mm and the zone of inhibition at 1000 µg/mL [3] was 10 mm. For the same molecule, the zone of inhibition at 1000 µg/mL [4] was 12 mm, the zone of inhibition at 1000 µg/mL [5] was 10 mm and the zone of inhibition at 1000 µg/mL [6] was 10 mm.
GENTAMICIN showed an inhibition zone (IZ) [1] of 16 mm, an inhibition zone (IZ) [2] of 15 mm and an inhibition zone (IZ) [4] of 15 mm.
In the case of `NNc1nc(-c2c(-c3ccccc3)[nH]c3ccc(Cl)cc23)c2c(N)n[nH]c2n1`, the zone of inhibition at 1000 µg/mL [1] is reported as 13 mm, the zone of inhibition at 1000 µg/mL [2] is reported as 13 mm and the zone of inhibition at 1000 µg/mL [3] is reported as 13 mm. The zone of inhibition at 1000 µg/mL [4] was 9 mm, the zone of inhibition at 1000 µg/mL [5] was 9 mm and the zone of inhibition at 1000 µg/mL [6] was 10 mm.
For `N#Cc1c(-c2c(-c3ccccc3)[nH]c3ccccc23)n2nnnc2n2nnnc12`, the zone of inhibition at 1000 µg/mL [1] was 14 mm, the zone of inhibition at 1000 µg/mL [2] was 14 mm and the zone of inhibition at 1000 µg/mL [3] was 7 mm. For the same molecule, the zone of inhibition at 1000 µg/mL [4] was 12 mm, the zone of inhibition at 1000 µg/mL [5] was 10 mm and the zone of inhibition at 1000 µg/mL [6] was 10 mm.
With `Cc1ccc2[nH]c(-c3ccccc3)c(-c3nc(NN)nc4[nH]nc(N)c34)c2c1` the zone of inhibition at 1000 µg/mL [1] was 12 mm, the zone of inhibition at 1000 µg/mL [2] was 11 mm and the zone of inhibition at 1000 µg/mL [3] was 9 mm. The zone of inhibition at 1000 µg/mL [4] was 13 mm, the zone of inhibition at 1000 µg/mL [5] was 10 mm and the zone of inhibition at 1000 µg/mL [6] was 10 mm.
`N#Cc1c(-c2c(-c3ccccc3)[nH]c3ccc(Cl)cc23)[nH]c(=S)[nH]c1=S` was tested, and the zone of inhibition at 1000 µg/mL [1] was 10 mm, the zone of inhibition at 1000 µg/mL [2] was 12 mm and the zone of inhibition at 1000 µg/mL [3] was 11 mm. For the same molecule, the zone of inhibition at 1000 µg/mL [4] was 9 mm, the zone of inhibition at 1000 µg/mL [5] was 11 mm and the zone of inhibition at 1000 µg/mL [6] was 10 mm.
For `N#Cc1c(NN)nc(NN)nc1-c1c(-c2ccccc2)[nH]c2ccc(Cl)cc12`, the zone of inhibition at 1000 µg/mL [1] was 13 mm, the zone of inhibition at 1000 µg/mL [2] was 11 mm and the zone of inhibition at 1000 µg/mL [3] was 10 mm. The zone of inhibition at 1000 µg/mL [4] was 10 mm, the zone of inhibition at 1000 µg/mL [5] was 8 mm and the zone of inhibition at 1000 µg/mL [6] was 10 mm.
Work on `OC(Cn1cncn1)(Cn1cncn1)c1ccc(F)cc1F` [FLUCONAZOLE] yielded a zone of inhibition at 1000 µg/mL [3] of 14 mm, a zone of inhibition at 1000 µg/mL [5] of 14 mm and a zone of inhibition at 1000 µg/mL [6] of 15 mm.
Work on `N#Cc1c(-c2c(-c3ccccc3)[nH]c3ccccc23)[nH]c(=S)[nH]c1=S` yielded a zone of inhibition at 1000 µg/mL [1] of 7 mm, a zone of inhibition at 1000 µg/mL [2] of 8 mm and a zone of inhibition at 1000 µg/mL [3] of 10 mm. For the same molecule, the zone of inhibition at 1000 µg/mL [4] was 8 mm, the zone of inhibition at 1000 µg/mL [5] was 11 mm and the zone of inhibition at 1000 µg/mL [6] was 11 mm.
`N#Cc1c(-c2c(-c3ccccc3)[nH]c3ccc(Cl)cc23)[nH]c(=S)[nH]c1=O` showed a zone of inhibition at 1000 µg/mL [1] of 10 mm, an IC50 [7] of 16.43 µg/mL (≈ 43.4 µM) and a zone of inhibition at 1000 µg/mL [2] of 14 mm. For the same molecule, the zone of inhibition at 1000 µg/mL [3] was 12 mm, the Activity [8] was 79.7% and the zone of inhibition at 1000 µg/mL [4] was 14 mm. It also gave a zone of inhibition at 1000 µg/mL [5] of 10 mm and a zone of inhibition at 1000 µg/mL [6] of 9 mm.
Molecule `Cc1ccc2[nH]c(-c3ccccc3)c(-c3nc(NN)nc(NN)c3C#N)c2c1` has a zone of inhibition at 1000 µg/mL [1] of 10 mm, a zone of inhibition at 1000 µg/mL [2] of 10 mm and a zone of inhibition at 1000 µg/mL [3] of 9 mm. It also gave a zone of inhibition at 1000 µg/mL [4] of 12 mm, a zone of inhibition at 1000 µg/mL [5] of 11 mm and a zone of inhibition at 1000 µg/mL [6] of 11 mm.
`Cc1ccc2[nH]c(-c3ccccc3)c(-c3c(C#N)c4nnnn4c4nnnn34)c2c1` gave a zone of inhibition at 1000 µg/mL [1] of 10 mm, a zone of inhibition at 1000 µg/mL [2] of 10 mm and a zone of inhibition at 1000 µg/mL [3] of 9 mm. For the same molecule, the zone of inhibition at 1000 µg/mL [4] was 11 mm, the zone of inhibition at 1000 µg/mL [5] was 9 mm and the zone of inhibition at 1000 µg/mL [6] was 12 mm.
`Cc1ccc2[nH]c(-c3ccccc3)c(-c3[nH]c(=S)[nH]c(=O)c3C#N)c2c1` gave a zone of inhibition at 1000 µg/mL [1] of 10 mm, a zone of inhibition at 1000 µg/mL [2] of 12 mm and a zone of inhibition at 1000 µg/mL [3] of 11 mm. The zone of inhibition at 1000 µg/mL [4] was 11 mm, the zone of inhibition at 1000 µg/mL [5] was 13 mm and the zone of inhibition at 1000 µg/mL [6] was 11 mm.
For `COc1ccc(O)c(C(C)(C)C)c1.COc1ccc(O)cc1C(C)(C)C` [BUTYLATED HYDROXYANISOLE], the IC50 [7] was 14.35 µg/mL.
`NNc1nc(-c2c(-c3ccccc3)[nH]c3ccccc23)c2c(N)n[nH]c2n1` showed a zone of inhibition at 1000 µg/mL [1] of 11 mm, a zone of inhibition at 1000 µg/mL [2] of 12 mm and a zone of inhibition at 1000 µg/mL [3] of 12 mm. It also gave a zone of inhibition at 1000 µg/mL [4] of 12 mm, a zone of inhibition at 1000 µg/mL [5] of 12 mm and a zone of inhibition at 1000 µg/mL [6] of 10 mm.
In the case of `Cc1ccc2[nH]c(-c3ccccc3)c(-c3[nH]c(=S)[nH]c(=S)c3C#N)c2c1`, the zone of inhibition at 1000 µg/mL [1] is reported as 10 mm, the zone of inhibition at 1000 µg/mL [2] is reported as 9 mm and the zone of inhibition at 1000 µg/mL [3] is reported as 9 mm. The zone of inhibition at 1000 µg/mL [4] was 8 mm, the zone of inhibition at 1000 µg/mL [5] was 9 mm and the zone of inhibition at 1000 µg/mL [6] was 10 mm.
